From the CheMixHub viscosity set
Where “and” joins values, the source holds several entries; their conditions need not be identical. Equal values may be shown once.

Experiment: xn = mol fraction of the nth substance listed

CC(C)O + O
Details	viscosity
308.15 K, 101 kPa, x2 = 0.26	1.616 mPa·s
308.15 K, 101 kPa, x2 = 0.4678	1.856 mPa·s
308.15 K, 101 kPa, x2 = 0.6079	2.072 mPa·s
308.15 K, 101 kPa, x2 = 0.685	2.169 mPa·s
308.15 K, 101 kPa, x2 = 0.7249	2.178 mPa·s
308.15 K, 101 kPa, x2 = 0.805	2.088 mPa·s
308.15 K, 101 kPa, x2 = 0.89	1.675 mPa·s
308.15 K, 101 kPa, x2 = 0.9549	1.23 mPa·s
313.15 K, 101 kPa, x1 = 0.01	0.733 mPa·s
313.15 K, 101 kPa, x1 = 0.02	0.823 mPa·s
313.15 K, 101 kPa, x1 = 0.032	0.933 mPa·s
313.15 K, 101 kPa, x1 = 0.05	1.098 mPa·s
313.15 K, 101 kPa, x1 = 0.07069	1.27 mPa·s
313.15 K, 101 kPa, x1 = 0.1	1.458 mPa·s
313.15 K, 101 kPa, x1 = 0.11	1.495 mPa·s
313.15 K, 101 kPa, x1 = 0.2	1.789 mPa·s
313.15 K, 101 kPa, x1 = 0.23	1.821 mPa·s
313.15 K, 101 kPa, x1 = 0.41	1.731 mPa·s
313.15 K, 101 kPa, x2 = 0.1049	1.365 mPa·s
313.15 K, 101 kPa, x2 = 0.26	1.412 mPa·s
313.15 K, 101 kPa, x2 = 0.4678	1.604 mPa·s
313.15 K, 101 kPa, x2 = 0.6079	1.788 mPa·s
313.15 K, 101 kPa, x2 = 0.685	1.855 mPa·s
313.15 K, 101 kPa, x2 = 0.7249	1.858 mPa·s
313.15 K, 101 kPa, x2 = 0.805	1.781 mPa·s
313.15 K, 101 kPa, x2 = 0.89	1.447 mPa·s
313.15 K, 101 kPa, x2 = 0.9549	1.076 mPa·s
313.15 K, 101.33 kPa, x1 = 0.015	0.7848 mPa·s
313.15 K, 101.33 kPa, x1 = 0.05	1.113 mPa·s
313.15 K, 101.33 kPa, x1 = 0.075	1.292 mPa·s
313.15 K, 101.33 kPa, x1 = 0.1	1.453 mPa·s
313.15 K, 101.33 kPa, x1 = 0.15	1.665 mPa·s
313.15 K, 101.33 kPa, x1 = 0.2	1.777 mPa·s
313.15 K, 101.33 kPa, x1 = 0.25	1.823 mPa·s
313.15 K, 101.33 kPa, x1 = 0.3	1.822 mPa·s
313.15 K, 101.33 kPa, x1 = 0.4	1.756 mPa·s
313.15 K, 101.33 kPa, x1 = 0.5	1.649 mPa·s
313.15 K, 101.33 kPa, x1 = 0.6	1.539 mPa·s
313.15 K, 101.33 kPa, x1 = 0.7	1.446 mPa·s
313.15 K, 101.33 kPa, x1 = 0.8	1.375 mPa·s
313.15 K, 101.33 kPa, x1 = 0.85	1.35 mPa·s
313.15 K, 101.33 kPa, x1 = 0.9	1.327 mPa·s
313.15 K, 101.33 kPa, x1 = 0.925	1.331 mPa·s
313.15 K, 101.33 kPa, x1 = 0.95	1.332 mPa·s
313.15 K, 101.33 kPa, x1 = 0.975	1.336 mPa·s
318.15 K, 101 kPa, x1 = 0.01	0.664 mPa·s
318.15 K, 101 kPa, x1 = 0.02	0.739 mPa·s
318.15 K, 101 kPa, x1 = 0.032	0.836 mPa·s
318.15 K, 101 kPa, x1 = 0.05	0.966 mPa·s
318.15 K, 101 kPa, x1 = 0.07069	1.103 mPa·s
318.15 K, 101 kPa, x1 = 0.1	1.261 mPa·s
318.15 K, 101 kPa, x1 = 0.11	1.315 mPa·s
318.15 K, 101 kPa, x1 = 0.2	1.539 mPa·s
318.15 K, 101 kPa, x1 = 0.23	1.579 mPa·s
318.15 K, 101 kPa, x1 = 0.41	1.484 mPa·s
318.15 K, 101 kPa, x2 = 0.1049	1.182 mPa·s
318.15 K, 101 kPa, x2 = 0.26	1.237 mPa·s
318.15 K, 101 kPa, x2 = 0.4678	1.397 mPa·s
318.15 K, 101 kPa, x2 = 0.6079	1.561 mPa·s
318.15 K, 101 kPa, x2 = 0.685	1.604 mPa·s
318.15 K, 101 kPa, x2 = 0.7249	1.598 mPa·s
318.15 K, 101 kPa, x2 = 0.805	1.539 mPa·s
318.15 K, 101 kPa, x2 = 0.89	1.255 mPa·s
318.15 K, 101 kPa, x2 = 0.9549	0.95 mPa·s
323.15 K, 100 kPa, x1 = 0.2	1.375 mPa·s and 1.3 mPa·s
323.15 K, 100 kPa, x1 = 0.3	1.387 mPa·s
323.15 K, 100 kPa, x2 = 0.1	1.03 mPa·s
323.15 K, 100 kPa, x2 = 0.2	1.08 mPa·s
323.15 K, 100 kPa, x2 = 0.3	1.11 mPa·s
323.15 K, 100 kPa, x2 = 0.4	1.21 mPa·s
323.15 K, 100 kPa, x2 = 0.5	1.26 mPa·s
323.15 K, 100 kPa, x2 = 0.6	1.37 mPa·s
323.15 K, 100 kPa, x2 = 0.7	1.37 mPa·s
323.15 K, 100 kPa, x2 = 0.8	1.37 mPa·s
323.15 K, 100 kPa, x2 = 0.9	1.14 mPa·s
323.15 K, 101 kPa, x1 = 0.01	0.604 mPa·s
323.15 K, 101 kPa, x1 = 0.02	0.668 mPa·s
323.15 K, 101 kPa, x1 = 0.05	0.856 mPa·s
323.15 K, 101 kPa, x1 = 0.07069	0.969 mPa·s
323.15 K, 101 kPa, x1 = 0.1	1.101 mPa·s
